Our source for the Ka values is paper PMC3225368, “A Conformational Switch in the Active Site of BT_2972, a Methyltransferase from an Antibiotic Resistant Pathogen B. thetaiotaomicron” (PLoS ONE, 2011).

Marks after values point to notes of the source that are not given here.

The target of the test is T1, BT_2972 (Bacteroides thetaiotaomicron, UniProt Q8A3I2).
T1 construct: 257 amino acids with noncleavable N-terminal (His)6 tag; pGS21a, E. coli BL21 (DE3); monomer in solution; first 12 residues disordered
Nature of the test: isothermal titration calorimetry. The class given is binding. The conditions noted are these: 20 mM Tris-HCl pH 8.0, 200 mM NaCl, 24 °C; single-site model.

T1 sequence (Q8A3I2 entry or part of it, change not shown): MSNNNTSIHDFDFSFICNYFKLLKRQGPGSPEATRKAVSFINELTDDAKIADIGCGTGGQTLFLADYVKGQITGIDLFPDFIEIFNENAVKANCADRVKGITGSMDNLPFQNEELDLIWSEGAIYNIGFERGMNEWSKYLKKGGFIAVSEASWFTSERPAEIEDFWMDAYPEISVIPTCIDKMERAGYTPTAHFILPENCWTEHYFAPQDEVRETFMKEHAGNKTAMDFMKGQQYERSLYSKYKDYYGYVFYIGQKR

As to `C[S+](CC[C@H](N)C(=O)O)C[C@H]1O[C@@H](n2cnc3c(N)ncnc32)[C@H](O)[C@@H]1O` (some centres unmarked) [AdoMet], the Ka was 0.395×10^5 (±0.0435×10^5).
In the case of `Nc1ncnc2c1ncn2[C@@H]1O[C@H](CSCC[C@H](N)C(=O)O)[C@@H](O)[C@H]1O` [AdoHcy] it was 3.498×10^5 (±0.66×10^5).
